How the values were obtained:
[1] = Constant current DC iontophoretic transport across human epidermal membrane in side-by-side diffusion cell
Procedure: Iontophoretic transport studies were carried out in a side-by-side two-chamber diffusion cell (diffusional surface area of around 0.8 cm^2 and chamber volume of 2 mL) with HEM at 37° C. The apparent permeability coefficients (P) in each experiment were calculated by: [formula]
where A is the membrane surface area, t is time, Q is the amount of permeant transported into the receiver chamber, and CD is the concentration of permeant in the donor chamber. The pH of the solutions in the donor and receiver chambers was checked after each iontophoresis run to detect possible water hydrolysis.
Constant current DC transport experiments were carried out at the current level of 0.13 mA/cm^2 using a constant current iontophoretic device (phoresor II Auto, Model No. PM 850, Iomed, Inc., Salt Lake City, Utah) with Ag—AgCl electrodes. […] HEM resistance during iontophoresis was measured by monitoring the electrical potential drop across the membrane using two flexible Luggin capillaries which were inserted into the donor and receiver compartments of the diffusion cells. Each of the Luggin capillaries contained a calomel electrode connected to a voltmeter. The HEM resistance could be determined during iontophoresis according the output current level and the voltmeter readings.
A trace amount of [^14C] […] One ml of sample was taken from the receiver chamber approximately every 30 minutes and replaced with the fresh PBS. A 10 μl sample was taken from the donor chamber every hour. Samples were mixed with 10 ml scintillation cocktail (Ultima Gold™, Packard Instrument Co., Meriden, Conn.) and assayed by a dual-labeled liquid scintillation counter (Parkard TriCarb™ Model 1900 TR Liquid Scintillation Analyzer).

[2] = AC + DC offset iontophoretic transport across human epidermal membrane in side-by-side diffusion cell; format: in vitro ADME
Excerpt: The output AC voltage was manually adjusted between 3 to 8 volts to keep the skin resistance at 2 kΩ (±10%) and the DC offset value was kept constant at 0.25 V during the entire period of the experiment. The same permeants and sampling protocol were used as described in the Constant Current Session.

[3] = AC without DC offset (AC + passive) transport across human epidermal membrane in side-by-side diffusion cell; format: in vitro ADME; conditions: target skin resistance 2 kΩ; for Papp: all data points from 100 to 330 min
Excerpt: The same protocol was used to reduce the skin electrical resistance to 2 kΩ as described in the AC+DC Offset method. […] Permeants and sampling protocol were the same as in the Constant Current and AC+DC Offset sessions as described above.

[4] = 0.13 mA/cm^2 DC, data points between 100 and 330 minutes
[5] = AC + DC, 50 Hz, DC offset 250 mV, target skin resistance 2 kΩ, data points between 100 and 330 minutes

| Slope of normalized mannitol flux versus time (linear regression) [1, 4] | Rate of change of mannitol flux, fold higher with constant current DC than with AC without DC Offset ([1]; constant current DC versus AC without DC Offset) [fold] | Rate of change of mannitol flux, fold higher with constant current DC than with AC+DC Offset ([1]; constant current DC versus AC+DC Offset) [fold] | Papp ([1]; human) [×10⁻⁶ cm/s] | Papp at 180 min ([1]; human) [×10⁻⁶ cm/s] | Slope of normalized mannitol flux versus time (linear regression) [2, 5] | Rate of change of mannitol flux, lower with AC+DC Offset method compared with AC without DC Offset method ([2]; AC+DC Offset versus AC without DC Offset) [%] | Papp ([2]; human, AC (50 Hz) with 0.25 V DC offset, target skin resistance 2 kΩ, all data points from 100 to 330 min, 36 points (6 skin samples), read-out: Mannitol permeability coefficient, mean) [×10⁻⁶ cm/s] | Papp at 180 min ([2]; human, AC (50 Hz) with 0.25 V DC offset, target skin resistance 2 kΩ, one time point (180 min), 6 samples, read-out: Mannitol permeability coefficient, mean) [×10⁻⁶ cm/s] | Slope of normalized mannitol flux versus time (linear regression) ([3]; AC 50 Hz, no DC offset, data points between 100 and 330 minutes) | Papp ([3]; human, AC (50 Hz) w/o DC offset, 28 points (4 skin samples), read-out: Mannitol permeability coefficient, mean) [×10⁻⁶ cm/s] | Papp at 180 min ([3]; human, AC (50 Hz) w/o DC offset, one time point (180 min), 4 samples, read-out: Mannitol permeability coefficient, mean) [×10⁻⁶ cm/s] | Compound | Slope of normalized TEA^+ flux versus time (linear regression) [1, 4] | Slope of normalized TEA^+ flux versus time (linear regression) [2, 5] | Papp ([3]; human, AC (50 Hz) w/o DC offset, 28 points (4 samples), read-out: TEA^+ permeability coefficient, mean) [×10⁻⁶ cm/s] |
| --- | --- | --- | --- | --- | --- | --- | --- | --- | --- | --- | --- | --- | --- | --- | --- |
| 4 × 10^−10 cm sec^−1 min^−1 | 5.7 | 10 | 0.16 | 0.15 | 4 × 10^−11 cm sec^−1 min^−1 | 57 | 0.16 | 0.17 | 7 × 10^−11 cm sec^−1 min^−1 | 0.0985 | 0.101 | OC[C@@H](O)[C@@H](O)[C@H](O)[C@H](O)CO [Mannitol, mannitol] |  |  |  |
|  |  |  |  |  |  |  |  |  |  |  |  | CC[N+](CC)(CC)CC.[Br-] [TEA^+, tetraethylammonium bromide] | 6 × 10^−9 cm sec^−1 min^−1 | 2 × 10^−9 cm sec^−1 min^−1 | 1.08 |
